According to patent US20240408159A1, “PHYTOENE-CONTAINING OLEORESIN AND COMPOSITION” (LYCORED LTD., priority 2021, published 2024):

Assays:
IL-1a = test: DPM-induced IL-1a production in EpiDerm 3D reconstructed skin model; type: cell-based, human; conditions: 48 hours, FIG. 6
Procedure: The EpiDerm reconstructed skin system was obtained from the supplier MatTek (catalogue number EPI-200), and the tissue was handled according to the manufacturer's instructions. Briefly, upon delivery, the tissue was removed from its agar medium, washed and then left to recover overnight at 37 C, in a 5% CO2 environment. Then, the tissue was treated with topically-applied DPM (100 μg/ml in PBS, 10 μl/sample) in the presence or absence of the phytoene oleoresin diluted in jojoba wax at concentrations of 0.1, 1 and 2.5%, to a final volume of 30 μl. The following control groups were also set up: naïve tissue (untreated control), vehicle (jojoba wax), DPM-stimulated tissue and N-acetyl cysteine (NAC; positive control). Following addition of the test substances and controls, the reconstructed skin cultures were incubated for a further 48 hours at 37 C, in a 5% CO2 environment. At the end of the treatment period, the medium was collected from the tissue control implants and centrifuged at 250×g for 5 minutes, in order to remove particulate matter. […] IL-1a and IL-6 levels in the thawed medium were determined using commercial ELISA kits (ELISA Max Deluxe Set Human IL-1a catalogue number B265424; ELISA Max Deluxe Set Human IL-6 catalogue number B2852558; both supplied by Enco), according to the manufacturer's instructions.

IL-8 = test: Inhibition of UVB-induced IL-8 production in cultured HaCaT keratinocytes; type: cell-based, human; conditions: UVB lamp, test at final phytoene concentration 56 ppm, FIG. 5
Procedure: Spontaneously transformed adult human keratinocytes of the HaCaT line were grown, maintained, plated and treated with control and test substances as described in Example 1, above. The cultured cells were irradiated using a UVB lamp in order to generate an inflammatory response in the cultured cells. The control substances used in this study were: • Vehicle control (“Control” in FIG. 5) • UVB exposure only (“Untreated”) • 4-Aminobenzoic acid (“PABA”; positive control) The test substance used was a dilution of the composition of the present invention (i.e., containing non-GMO, solvent free phytoene and jojoba oil), yielding a final phytoene concentration of 56 ppm. The IL-8 concentration of the culture cell supernatants was measured as described in Example 1, above.

SMILES	reduction in IL-1a production (positive control) (IL-1a)	reduction in UVB-stimulated IL-8 production (IL-8)
CC(=O)N[C@@H](CS)C(=O)O [NAC, N-acetyl cysteine]	reduction	
Nc1ccc(C(=O)O)cc1 [PABA, 4-Aminobenzoic acid]		inhibition
